Earlier results on two molecules are cited in patent publication US20150290173A1, “TREATMENT OF SKIN OR MUCOSAL PATHOLOGY” (ZARZATECH, INC., priority 2012, published 2015).

Where a name gives a salt, the structure may show the parent alone.

For data set [1] the following is noted: dog gingivitis model.
Data set [2] concerns crevicular neutrophils. Particulars: topical 0.5% oral rinse, humans.

In the case of `CN/C(=N/CCSCc1nc[nH]c1C)NC#N` [cimetidine HCL], the anti-gingivitis activity result in data set [1] (dose response study) was “significant anti-gingivitis activity that increased with increasing dose”.
As to `CN/C(=N/CCSCc1nc[nH]c1C)NC#N` [cimetidine, Cimetidine], the “gingival inflammation and gingival bleeding” value in data set [1] was “significantly reduced gingival inflammation and gingival bleeding”. In data set [2], the “antibacterial function of crevicular neutrophils” value is given as “enhanced antibacterial function of crevicular neutrophils” and the “clinical benefit on gingivitis” value was “no clinical benefit on gingivitis”.
